In US11547681B2, “N-acylethanolamide derivatives and uses thereof” (ELIEM THERAPEUTICS, INC., priority 2016, dated 2023):

Columns and labels:
[1] = in vitro; settings: male, CD-1, mouse; for Measured concentration of PEA (analyte) / % Remaining of Initial: 1 μM
Summary of the method: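 Percent remaining relative to time 0 and half-life (single-phase exponential fit) were derived from LC-MS/MS measurement of the dosed prodrug and its expected drug, PEA. Incubations contained 1 μM test article at 37 °C, were initiated with cofactor cocktail and were sampled up to 60 min.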

[2] = Plasma stability (37° C., pH 7.4), human; assay type: in vitro ADME; settings: for % Remaining of Initial: human plasma, 1 μM, n = 1
Experimental: (§1) Studies were carried out in mixed-gender human plasma (Lot #GLP530-5), male Sprague-Dawley rat (Lot #RAT297944, RAT313140), male CD-1 mouse (Lot #MSE237700), and male Beagle dog (Lot #BGL87670, BGL82614), collected on sodium heparin. Plasma was adjusted to pH 7.4 prior to initiating the experiments. DMSO stocks were first prepared for the test articles. Aliquots of the DMSO solutions were dosed into 700 μL of plasma, which had been pre-warmed to 37° C., at a final test article concentration of 1 μM. […] Samples were stored at 4° C. until the end of the experiment. After the final time point was sampled, the plate was mixed and then centrifuged at 3,000 rpm for 10 minutes. Calibration standards were prepared in matched matrix. […] Analytical conditions are outlined in Appendix 8-1.
as §1, with “#AS1650-2),” for “#GLP530-5),”, “#RAT297944),” for “#RAT297944, RAT313140),”, “CD-I” for “CD-1”, “#BGL91384),” for “#BGL87670, BGL82614),”, “10-1.” for “8-1.”
Studies were carried out in mixed-gender human plasma (Lot #AS1650-2), male Sprague-Dawley rat (Lot #RAT297944), male CD-1 mouse (Lot #MSE237700), and male Beagle dog (Lot #BGL91384), collected on sodium heparin. Plasma was adjusted to pH 7.4 prior to initiating the experiments. DMSO stocks were first prepared for test articles. […] Samples were stored at 4° C. until the end of experiment. After the final time point was sampled, the plate was mixed and then centrifuged at 3,000 rpm for 10 minutes. Calibration standards were prepared in matched matrix. […] Analytical conditions are outlined in Appendix 13-1.
Studies were carried out in mixed-gender human plasma (Lot #AS 1650-2), male Sprague-Dawley rat (Lot #RAT320835), male CD-1 mouse (Lot #MSE260693), and 6 male Beagle dog (Lot #BGL91384), on sodium heparin. Plasma was adjusted to pH 7.4 prior to initiating the experiments. DMSO stocks were first prepared for the test articles. Aliquots of the DMSO solutions were dosed into 700 μL of plasma, which had been pre-warmed to 37° C., at a final test article concentration of 1 μM. […] Samples were stored at 4° C. until the end of the experiment. After the final time point was sampled, the plate was mixed and then centrifuged at 3,000 rpm for 10 minutes. Calibration standards were prepared in matched matrix. […] Analytical conditions are outlined in Appendix 17-1.

SMILES: CCCCCCCCCCCCCCCC(=O)NCCOC(=O)CCC(=O)OC(COC(=O)CCC)COC(=O)CCC [Compound I-16]
- Measured concentration of PEA (analyte) ([1]; 0 min): 0 µM
- Measured concentration of PEA (analyte) ([1]; 10 min): 0.10 µM
- Measured concentration of PEA (analyte) ([1]; 20 min): 0.17 µM
- Measured concentration of PEA (analyte) ([1]; 30 min): 0.18 µM
- Measured concentration of PEA (analyte) ([1]; 60 min): 0.26 µM
- % Remaining of Initial ([1]; s9, 0 h): 100%
- % Remaining of Initial ([1]; s9, 10 min): 2.0%
- % Remaining of Initial ([1]; s9, 20 min): <1.0%
- % Remaining of Initial ([1]; s9, 0.5 h): <1.0%
- % Remaining of Initial ([1]; s9, 1 h): <1.0%
- microsomal CLint at 1 μM ([1]; s9, CLint): > 69.3 µL/min/mg
- half-life at 1 μM ([1]; s9, Half-life): < 10 min
- half-life at 1 μM ([2]; both sexes, human, plasma, pH 7.4, human plasma, read-out: Half-life): 31 min
- % Remaining of Initial ([2]; 0 min): 100%
- % Remaining of Initial ([2]; 15 min): 78%
- % Remaining of Initial ([2]; 30 min): 51%
- % Remaining of Initial ([2]; 60 min): 24%
- % Remaining of Initial ([2]; 120 min): 5.8%
